Where two headings read alike, the source gives them in different places.
Experiments:
[1] = system: SR/Leukemia; assay: NCI single-dose screen, SR; format: cell-based, human; conditions: 10 μM, 48 h
Method: (§1) Considering the results of previous studies of fused thiazolidinones and their analogs, a series of thiopyrano[2,3-d]thiazoles with naphthoquinone fragments in the structure were studied for their anticancer activity. Thus, synthesized thiopyranothiazole derivatives 3.5 and 3.6 were selected by the National Cancer Institute (NCI), U.S., for their anticancer activity at 10 μM concentration toward a panel of sixty cancer cell lines representing nine different types (leukemia, melanoma, lung, colon, CNS, ovarian, renal, prostate, and breast cancers) (Figures S13–S14). Selection for screening based on new derivatives’ ability to add diversity to the NCI small molecules collection and anticancer assays were performed according to the NCI guidelines and protocols previously described. The compounds were added at the mentioned concentration, and the cell cultures were incubated for 48 h. The results for each compound were reported as the growth percent (GP%) of treated cells compared with untreated control cells.
(§2) Anticancer in vitro assay was performed on the human tumor cell lines panel derived from nine neoplastic diseases by the protocol of the Drug Evaluation Branch, National Cancer Institute, Bethesda, MD, USA [44, 45, 46]. […] GP% was spectrophotometrically evaluated vs. controls not treated with test agents.

[2] = system: human breast adenocarcinoma cells of MCF-7 line; assay: MTT cell viability assay, MCF-7; format: cell-based
Method: (§3) The MTT cell viability assay was performed 72 h after cells treatment with various concentrations of studied compounds and doxorubicin, a reference drug. […] It is known that ABCB1 (P-glycoprotein), MRP1/ABCC1 (multidrug resistance protein 1), and BCRP/BCG2 (breast cancer resistance protein) have been reported to be key players in resistance to chemotherapy. […] The p53 has diverse mutations in almost all human tumors, stimulating their hyper-proliferation, invasion/metastasis, and thus, influencing the potency of various chemotherapeutics (i.e., platins and anti-metabolites).
(§4) Human colon carcinoma HCT116 cells, human breast adenocarcinoma cells of MCF-7 line, human T-leukemia Jurkat cells, human chronic myelogenous leukemia K562 cells, and human keratinocytes of HaCaT line were from the Cell Collection of R.E. Kavetsky Institute of Experimental Pathology, Oncology and Radiobiology (Kyiv, Ukraine). Murine macrophages of J774.2 line were a generous gift from Professor Sir John Vane (William Harvey Research Institute, London, UK) via Professor Janusz Marcinkiewicz (Jagiellonian University Medical College, Krakow, Poland). Human colon carcinoma HCT116 p53-/- cells with knockdown of P53 gene, as well as human epidermoid cervix carcinoma KB3-1 cells and its ABCB1-overexpressing subline KBC-1, were kindly provided by Professor W. Berger (Institute of Cancer Research, Medical University of Vienna, Austria). […] Human leukemia monocytic THP-1 cells were kindly provided by Professor M. Herrmann (Department of Internal Medicine, Institute for Clinical Immunology and Rheumatology, University of Erlangen-Nuremberg, Germany). Cells were cultured in DMEM or RPMI-1640 medium supplemented with 10% fetal bovine serum (all were purchased from Biowest, Nuaille, France) at 37 °C in a humidified atmosphere containing 5% CO2.
(§5) MTT assay was used to examine the viability of tumor and pseudo-normal cells after their treatment with studied thiopyrano[2,3-d]thiazole derivatives and doxorubicin (Actavis S.R.L., Bucharest, Romania). Cells were seeded in 96-well plates at a density of 3–5 × 103. After 24 h, cells were treated with compound […], 1,4-NQ (0.1–100 µM), and doxorubicin (0.1–100 µM). After incubation for 72 h, MTT reagent (Sigma-Aldrich, St. Louis, MO, USA) was added to each well, according to the Sigma-Aldrich protocol. An absorbance Reader BioTek ELx800 (BioTek Instruments, Inc., Winooski, VT, USA) was used to measure the reaction product.

[3] = system: Murine macrophages of J774.2 line; assay: MTT cell viability assay, J774.2; format: cell-based; conditions: pseudo-normal murine macrophages
Method: as §3, §4, §5

[4] = system: panel of sixty cancer cell lines; assay: NCI single-dose (10 μM) anticancer screen, sulforhodamine B, 60-cell-line panel; format: cell-based, human; conditions: 48 h
Method: as §1
Anticancer in vitro assay was performed on the human tumor cell lines panel derived from nine neoplastic diseases by the protocol of the Drug Evaluation Branch, National Cancer Institute, Bethesda, MD, USA [44, 45, 46]. Tested compounds were added to the culture at a single concentration (10^−5 M), and the cultures were incubated for 48 h. Endpoint determinations were made with a protein binding dye, sulforhodamine B. Results for each tested compound were reported as the GP% of the treated cells compared to untreated control cells. GP% was spectrophotometrically evaluated vs. controls not treated with test agents.

[5] = system: human chronic myelogenous leukemia K562 cells; assay: MTT cell viability assay, K562; format: cell-based
Method: as §3, §4, §5

[6] = system: UO-31/Renal Cancer; assay: NCI single-dose screen, UO-31; format: cell-based, human; conditions: 10 μM, 48 h
Method: as §1, §2

[7] = system: human epidermoid cervix carcinoma KB3-1 cells; assay: MTT cell viability assay, KB3-1; format: cell-based
Method: as §3, §4, §5

[8] = system: EKVX/Non-Small Cell Lung Cancer; assay: NCI single-dose screen, EKVX; format: cell-based, human; conditions: 10 μM, 48 h
Method: as §1, §2

[9] = system: Human colon carcinoma HCT116 p53-/- cells; assay: MTT cell viability assay, HCT116 p53-/-; format: cell-based; conditions: MTT, 72 h, read-out: IC50, HCT116 p53-/-
Method: as §3, §4, §5

[10] = system: Human colon carcinoma HCT116 cells (HCT116wt); assay: MTT cell viability assay, HCT116wt; format: cell-based
Method: as §3, §4, §5

[11] = system: T-47D/Breast Cancer; assay: NCI single-dose screen, T-47D; format: cell-based, human; conditions: 10 μM, 48 h
Method: as §1, §2

[12] = system: IGROV1/Ovarian Cancer; assay: NCI single-dose screen, IGROV1; format: cell-based, human; conditions: 10 μM, 48 h
Method: as §1, §2

[13] = system: RPMI-8226/Leukemia; assay: NCI single-dose screen, RPMI-8226; format: cell-based, human; conditions: 10 μM, 48 h
Method: as §1, §2

[14] = system: salmon sperm DNA; assay: DNA/methyl green colorimetric (replacement) assay; format: binding; conditions: 1µM
Method: In addition, we used DNA/methyl green colorimetric assay to study the possible interaction of compound 3.6 in DNA. […] This assay was used to measure the displacement of methyl green from DNA by compounds with the ability to intercalate DNA [54].
The capacity of the tested compounds to intercalate into salmon sperm DNA was determined using the methyl green assay. Briefly, salmon sperm DNA (10 mg/mL) was incubated for 1 h at 37 °C with 15 µL of methyl green solution (1 mg/mL in H2O). The compounds were added at concentrations 1 and 10 µM/mL and incubated at 37 °C in the dark for 2 h. Reduction of the absorbance of methyl green at 642 nm induced by the test compounds was measured with a multiplate reader, Plate Reader BioTek Lx80 ( BioTek Instruments, Inc., Winooski, VT, USA). Doxorubicin, a well-known intercalating agent, was used as a positive control.

[15] = system: KBC-1 (ABCB1-overexpressing subline of KB3-1); assay: MTT cell viability assay, KBC-1; format: cell-based; conditions: Homo sapiens, 72 h
Method: as §3
as §4, with “Cells were cultured in DMEM or RPMI-1640 medium supplemented with 10% fetal bovine serum (all were purchased from Biowest, Nuaille, France) at 37 °C in a humidified atmosphere containing 5% CO2.” left out
MTT assay was used to examine the viability of tumor and pseudo-normal cells after their treatment with studied thiopyrano[2,3-d]thiazole derivatives and doxorubicin (Actavis S.R.L., Bucharest, Romania). […] An absorbance Reader BioTek ELx800 (BioTek Instruments, Inc., Winooski, VT, USA) was used to measure the reaction product.

[16] = system: isolated normal human peripheral blood lymphocytes; assay: MTT cell viability assay, isolated lymphocytes; format: cell-based; conditions: Homo sapiens, Lymphocyte, 72 h, read-out: IC50, Isolated lymphocytes, MTT, 72 h, normal human peripheral blood lymphocytes
Method: We continued the cytotoxicity study of synthesized derivatives 3.1–3.6 toward tumor and pseudo-normal cells in vitro. The MTT cell viability assay was performed 72 h after cells treatment with various concentrations of studied compounds and doxorubicin, a reference drug. […] The THP-1 cells, monocytes isolated from peripheral blood from an acute monocytic leukemia patient, were also sensitive to the 3.6 treatment. […] The 3.6 inhibited the viability of epidermoid carcinoma (KB3-1 and its ABCB1-overexpressing subline KBC-1) and colon carcinoma (HCT116wt and its p53 knockdown subline HCT116 p53-/-) cells. It is known that ABCB1 (P-glycoprotein), MRP1/ABCC1 (multidrug resistance protein 1), and BCRP/BCG2 (breast cancer resistance protein) have been reported to be key players in resistance to chemotherapy. […] Thus, the p53 status of colon carcinoma cells influenced the anti-tumor effects of the studied 3,5,10,11-tetrahydro-2H-benzo[6,7]thiochromeno[2,3-d][1, 3]thiazole-2,5,10-trione. The p53 has diverse mutations in almost all human tumors, stimulating their hyper-proliferation, invasion/metastasis, and thus, influencing the potency of various chemotherapeutics (i.e., platins and anti-metabolites). […] Based on our findings, one can assume a p53-dependent mode of action for 3.6 toward colon cancer cells.
as §5
The study protocol with human lymphocytes isolated from healthy adult peripheral blood was approved by BioEthics Committee of the Institute of Cell Biology of National Academy of Sciences of Ukraine (protocol No 2 from 27 January 2019), and with written consent of donor.

Compound | melting point [°C] | IC50 ([2]; Homo sapiens, MCF7, 72 h) [µM] | IC50 ([3]; Mus musculus, J774.2, 72 h) [µM] | IC50 ([5]; Homo sapiens, K562, 72 h) [µM] | IC50 ([7]; Homo sapiens, KB 3-1, 72 h) [µM] | IC50 ([9]; Homo sapiens, HCT-116) [µM] | IC50 ([10]; Homo sapiens, HCT-116, 72 h) [µM] | also measured
O=C1C2=C(C(=O)c3ccccc31)C1(CCCC1)c1sc(=O)[nH]c1S2 [Compound 3.5, Spiro[benzo[6,7]thiochromeno[2,3-d]thiazole-11,1’-cyclopentane]-2,5,10(3H)-trione] | 231 to 233 | > 50 | > 50 | > 50 | > 50 | > 50 | 43.6 | Most Sensitive Cell Line Growth, % (SR/Leukemia) [1]: 59.89%; Mean Growth, % ([4]; growth percent vs untreated control, 60 cell lines): 88.33%; Range of Growth, % ([4]; range over 60 cell lines): 51.21 to 126.93%; Most Sensitive Cell Line Growth, % (UO-31/Renal Cancer) [6]: 55.54%; Most Sensitive Cell Line Growth, % (EKVX/Non-Small Cell Lung Cancer) [8]: 54.98%; Most Sensitive Cell Line Growth, % (T-47D/Breast Cancer) [11]: 51.21%; Most Sensitive Cell Line Growth, % (IGROV1/Ovarian Cancer) [12]: 55.15%; Most Sensitive Cell Line Growth, % (RPMI-8226/Leukemia) [13]: 53.82%
O=C1C2=C(C(=O)c3ccccc31)C(C=Cc1ccccc1)c1sc(=O)[nH]c1S2 (stereo not shown) [Compound 3.1, 11-Styryl-3,11-dihydro-2H-benzo [6,7]thiochromeno [2,3-d]thiazole-2,5,10-trione] | 338 to 340 | 9.19 | 24.4 | 43.7 | 37 | 40.3 | 29.2 | –
O=C1C=CC(=O)c2ccccc21 [1,4-NQ, 1,4-naphthoquinone] | – | – | – | – | 20.7 | – | – | percentage of methyl green replacement [14]: 65%; IC50 [15]: 8.33 µM; IC50 [16]: 62.9 µM
CC1(C)C2=C(Sc3[nH]c(=O)sc31)C(=O)c1ccccc1C2=O [Compound 3.4, 11,11-Dimethyl-3,11-dihydro-2H-benzo[6,7]thiochromeno[2,3-d]thiazole-2,5,10-trione] | 230 to 232 | 34.3 | 11.1 | 7.11 | 26 | 25.2 | 5.54 | –
O=C1C2=C(C(=O)c3ccccc31)C(C=Cc1ccccc1[N+](=O)[O-])c1sc(=O)[nH]c1S2 (stereo not shown) [Compound 3.2, 11-(2-Nitrostyryl)-3,11-dihydro-2H-benzo[6,7]thiochromeno[2,3-d]thiazole-2,5,10-trione] | 330 to 332 | 8.47 | 0.74 | 26 | 39.2 | > 50 | 6.81 | –
11-(2-Phenylprop-1-en-1-yl)-3,11-dihydro-2H-benzo[6,7]thiochromeno[2,3-d]thiazole-2,5,10-trione [Compound 3.3] | – | – | – | – | – | – | – | IC50 ([2]; 72 h): 26.8 µM; IC50 ([3]; 72 h): 30.5 µM; IC50 ([5]; 72 h): 13 µM; IC50 ([7]; 72 h): 28.8 µM; IC50 [9]: 11.1 µM; IC50 ([10]; 72 h): 15.8 µM

Source: paper PMC9658586, “1,4-Naphthoquinone Motif in the Synthesis of New Thiopyrano[2,3-d]thiazoles as Potential Biologically Active Compounds” (Molecules, 2022)
